Laboratory results: patent US20220400686A1, “COMPOSITIONS AND METHODS FOR ON-DEMAND RELEASE OF ANTIMICROBIAL AGENTS” (priority 2019, published 2022)

Experiments:
S. aureus = test: Specific and nonspecific cleavage in human serum with/without MN, read out by S. aureus culture in the supernatant; type: cell-based; details: PEGDMA-Oligo-Gentamicin hydrogel incubated 2 h in human serum with/without MN
Description: The data also support faster oligo cleavage by MN than by other nucleases present in the human serum.
Briefly, the PEGDMA-Oligo-Gentamicin hydrogel (50 μL, 8 mm in diameter, n=3) was immersed in 0.25 mL of human serum with or without MN (0.1 U/mL) and incubated at 37° C. for 2 h. The hydrogel was then removed while 0.25 mL of LB media containing 250 CFU S. aureus was added. The culture of S. aureus was incubated for 24 h at 37° C. with shaking.

[1] = target: T1, micrococcal nuclease (MN) (Staphylococcus aureus, UniProt P00644); test: Enzymatic oligo digestion by micrococcal nuclease monitored by GPC; type: biochemical, S. aureus
T1 construct: purchased Worthington Biochemical Corporation; host or cells: S. aureus strain ATCC #27735
Description: The cleavage of the oligo probe (synthesized and purified by Integrated DNA Technologies) by MN (source: S. aureus strain ATCC #27735; Worthington Biochemical Corporation) was first validated prior to its conjugation with vancomycin or PEGDMA hydrogel.
The digestion of the methacrylated oligo by micrococcal nuclease (MN, 0.1-1.0 U/μL) was monitored by aqueous gel permeation chromatography (GPC) on a Varian ProStar HPLC system with two PL Aquagel-OH columns (Agilent Technologies) and a UV detector. The eluent was aqueous PBS (10 mM, pH 7.4) and the flow rate was 1.0 mL/min. Detection of the oligo probe and its fragments upon digestion was enabled by UV absorbance at 260 nm. Extinction coefficient of 2′-O-methyl-modified nucleotides was assumed to be the same as that of RNA. All measurements were performed in triplicates.

| Substance | total CFU count of S. aureus after 24-h culture in supernatant (S. aureus) | cleavage of the oligo by MN (fragments by GPC, UV 260 nm) ([1]; MN 0.1 U/μL, PBS pH 7.4 10 mM, physiological concentration of calcium ions) | cleavage of the oligo by MN ([1]; absence of calcium ions) |
| --- | --- | --- | --- |
| /5Carboxyl/*mC*mG*TT*mC*mG*/3Acryd/ [6 PS] | increased accordingly | – | – |
| /5Carboxyl/*mC*mGTTmC*mG*/3Acryd/ [4 PS] | increased accordingly | – | – |
| /5Carboxyl/mCmGTTmCmG/3Acryd/ [0 PS oligo] | least or no CFU count | two fragments | very little cleavage |
